As a reminder, the IC50 is the point on the concentration scale where inhibition reaches its midpoint.

One assay deals with BRD4 (I) (Homo sapiens (Human), UniProt O60885). The experiment in a line: Fluorescence anisotropy (FA) binding test on BRD4 (I). Particulars: BRD4 (I) 10 nM, fluorescent (+)-JQ1 substrate 5 nM, read-out: BRD4 (1) IC50. As to the method:
The binding activity of the compound to BRD4 (I) was tested using a fluorescence anisotropy (FA) method. The principle of FA test is to calculate and analyze the fluorescence polarization values in the horizontal and vertical directions by detecting the change of molecular weight before and after the interaction of fluorescein-labeled small molecules with other molecules. If the equilibrium of the binding between the fluorescently labeled small molecule and macromolecule is established, it will move slowly when excited, and the measured fluorescence polarization value will increase. If the binding between the fluorescently labeled small molecule and the macromolecule is replaced by another ligand, its rotation or flipping speed in the free state will be faster, and the emitted light will be depolarized relative to the plane of the excitation light, and the measured polarized light value will decrease to calculate the fluorescence anisotropy of the sample.
Expression and purification of the BRD4(I) recognition domain: colonies of newly transformed plasmid DNA from E. coli BL21(DE3)-condon plus-RIL cells were cultivated in 50 mL of Terrific Broth medium containing 50 μg/mL kanamycin and 34 μg/mL chloramphenicol at 37° C. overnight (starting culture). The starting culture was then diluted 100-fold in 1 L of fresh TB medium and the cells were grown at 37° C. to an optical density of about 0.8 at OD600 and then the temperature was lowered to 16° C. When the system was equilibrated at 16° C., the optical density at OD600 was approximately 1.2, and protein expression was induced with 0.2 mmol of isopropyl-β-D-thiogalactopyranoside (IPTG) overnight at 16° C. Bacteria were harvested by centrifugation (4000×g, 20 minutes, 4° C.) and stored as a pellet at −80° C. The cells expressing His 6-tagged protein was resuspend in lysis buffer [50 mmol 4-hydroxyethylpiperazineethanesulfonic acid (HEPES), 25° C., pH 7.5, 500 mmol NaCl, 10 mmol imidazole, 5% glycerol and freshly added 0.5 mmol of tris(2-carboxyethyl)phosphine hydrochloride (TCEP) and 1 mmol of phenylmethanesulfonyl fluoride (PMSF)] and lysed at 4° C. using JN 3000PLUS high pressure homogenizer (JNBIO-Guangzhou, China). The lysate was clarified by centrifugation (12,000×g for 1 hour at 4° C.) and applied to a nickel-nitriloacetate agarose column. The column was washed once with 50 mL of wash buffer containing 30 mmol of imidazole. The protein was eluted using imidazole in an elution buffer in a stepwise elution (100-250 mmol imidazole in 50 mmol HEPES, 25° C., pH 7.5, 500 mmol NaCl, 5% glycerol). All fractions were collected and monitored by SDS-polyacrylamide gel electrophoresis (Bio-Rad Criterion TM Precast Gels, 4-12% Bis-Tris, 1.0 mm, from Bio-Rad, CA). After 1 mmol of dithiothreitol (DTT) was added, the eluted proteins were treated with tobacco […] virus (TEV) protease overnight at 4° C. to remove the His6 tag. The protein was concentrated and further purified by size exclusion chromatography on a Superdex 75 16/60 HiLoad gel filtration column. The samples were monitored by SDS-polyacrylamide gel electrophoresis and concentrated to 8-10 mg/mL with gel filtration buffer, 10 mmol Hepes pH 7.5, 500 mM NaCl, 1 mmol DTT, and used for protein binding assays and crystallization.
The fluorogenic substrate was (+)-JQ1 linked to a fluorescent molecule and the working concentration was 5 nM. BRD4 (I) protein had 10 nM of working concentration and the total reaction system was 40 μL. The buffer was 50 mM 4-hydroxyethylpiperazineethanesulfonic acid (HEPES) pH 7.4, 150 mM NaCl, 0.5 mM 3[(3-cholamidopropyl)dimethylammonio]propanesulfonate (CHAPS). […] The final concentration of DMSO was chosen to be 0.2%, taking into account the solubility of the compound and the effect of DMSO on the assay. All measurements were made under these conditions. […]
(Polarisation of emitted light reports the rotation of a fluorescent probe.)

The subject of assay [1] is human myeloma cells MM.1S. The experiment in a line: MM.1S cell viability, CCK-8 method. It counts as cell-based. Particulars: for IC50: 72 h treatment, CCK-8; for inhibitory activity against the MM.1S cell line (in words): compared with positive (+)-JQ1. As to the method: The MM.1S cell line was tested for cell viability. The test methods were as follows: human myeloma cells MM.1S were treated with compound for 72 h, and the proliferation inhibition effect and degree of the compound were detected by CCK-8 method.
A general note: Formazan colour is commonly taken as a measure of viable cells.

Take `Cc1ccc(-n2nc(C(=O)N3C[C@@H](C)N[C@@H](C)C3)nc2-c2ccc3c(c2)N(C2COC2)[C@H](C)C(=O)N3C)cc1` [Example 38]: the IC50 at BRD4 (I) worked out at 13.6 nM.
Regarding `Cc1ccc(-n2nc(C(=O)N3C[C@@H](N)C4(CC4)C3)nc2-c2ccc3c(c2)N(C2CCCC2)[C@H](C)C(=O)N3C)cc1` [Example 24], the IC50 on BRD4 (I) was determined as 5.3 nM.
Take `Cc1ccc(-n2nc(C(=O)N3CCN(C(C)C)CC3)nc2-c2ccc3c(c2)N(C2CCCC2)[C@H](C)C(=O)N3C)cc1` [Example 15]: at BRD4 (I), the IC50 came out at 4.2 nM.
Consider `Cc1ccc(-n2nc(C(=O)N3CCN(C4CC4)CC3)nc2-c2ccc3c(c2)N(C2CCCC2)[C@H](C)C(=O)N3C)cc1` [Example 11], for which, at BRD4 (I), the IC50 amounted to 5.08 nM.
As to `C[C@@H]1C(=O)N(C)c2ccc(-c3nc(C(=O)N4CCN(C)CC4)nn3-c3ccccc3)cc2N1C1CCCC1` [Example 7], the IC50 at BRD4 (I) amounted to 7.6 nM.
On the same count and under the same terms, to `Cc1ccc(-n2nc(C(=O)N3C[C@@H](NC(=O)OC(C)(C)C)C4(CC4)C3)nc2-c2ccc3c(c2)N(C2CCCC2)[C@H](C)C(=O)N3C)cc1` [Example 23] belongs 9.2 nM.
`Cc1ccc(-n2nc(C(=O)N3CCN(C)CC3)nc2-c2ccc3c(c2)N(C2CCCC2)[C@H](C)C(=O)N3C)cc1F` [Example 16]: the IC50 at BRD4 (I) stood at 4.06 nM; in assay [1] (Homo sapiens, MM1.S) it was 29.4 ± 9.3 nM.
Consider `Cc1ccc(-n2nc(C(=O)N3C4CCC3CN(C)C4)nc2-c2ccc3c(c2)N(C2CCCC2)[C@H](C)C(=O)N3C)cc1` [Example 18], for which the IC50 at BRD4 (I) was 6.5 nM; in assay [1] (Homo sapiens, MM1.S), 10.22 ± 0.02 nM. The “inhibitory activity against the MM.1S cell line (in words)” value (“inhibitory activity” for short) in assay [1] is on record as “better inhibitory activity against the MM.1S cell line than the positive (+)-JQ1”.
Turning to `Cc1ccc(-n2nc(C(=O)N3CCC4(CCCC4)CC3)nc2-c2ccc3c(c2)N(C2CCCC2)[C@H](C)C(=O)N3C)cc1` [Example 20], the IC50 at BRD4 (I) is 25.4 nM.
Turning to `Cc1ccc(-n2nc(C(=O)N3CCN4CCCC4C3)nc2-c2ccc3c(c2)N(C2CCCC2)[C@H](C)C(=O)N3C)cc1` (stereo partly drawn) [Example 22], the IC50 on BRD4 (I) worked out at 8.1 nM.
As to `Cc1ccc(-n2nc(C(=O)N3CCCN(C)CC3)nc2-c2ccc3c(c2)N(C2CCCC2)[C@H](C)C(=O)N3C)cc1` [Example 19], the IC50 at BRD4 (I) was 4.6 nM.
Consider `Cc1ccc(-n2nc(CN3C[C@@H](C)N[C@@H](C)C3)nc2-c2ccc3c(c2)N(C2CCCC2)[C@H](C)C(=O)N3C)cc1` [Example 47], for which, on BRD4 (I), the IC50 worked out at 6.7 nM.
For `Cc1ccc(-n2nc(C(=O)N3C[C@@H](C)N[C@@H](C)C3)nc2-c2ccc3c(c2)N(C2CC2)C(C)C(=O)N3C)cc1` (stereo partly drawn) [Example 36], the IC50 on BRD4 (I) is 18.5 nM; in assay [1] (Homo sapiens, MM1.S) it was 3.13 nM. For the same compound, the “inhibitory activity” value in assay [1] is on record as “better inhibitory activity against the MM.1S cell line than the positive (+)-JQ1”.
In the case of `Cc1ccc(-n2nc(C(=O)N3C[C@@H](C)N[C@@H](C)C3)nc2-c2ccc3c(c2)N(C2CCC(F)(F)CC2)[C@H](C)C(=O)N3C)cc1` [Example 40], on BRD4 (I), the IC50 was determined as 16 nM.
With `Cc1ccc(-n2c(C)nnc2-c2ccc3c(c2)N(C2CCCC2)[C@H](C)C(=O)N3C)cc1` [Example 32], the IC50 on BRD4 (I) was 5.1 nM.
Turning to `CCN1CCN(C(=O)c2nc(-c3ccc4c(c3)N(C3CCCC3)[C@H](C)C(=O)N4C)n(-c3ccc(C)cc3)n2)CC1` [Example 10], the concentration for half-maximal inhibition (IC50) at BRD4 (I) came to 4.96 nM; in assay [1] (Homo sapiens, MM1.S), 25.8 ± 0.52 nM.
Take `Cc1ccc(-n2nc(C(=O)N3CCN(C)CC3)nc2-c2ccc3c(c2)N(C2CCCC2)[C@H](C)C(=O)N3C)c(C)c1` [Example 9]: the IC50 is 8.2 nM at BRD4 (I) and 23 ± 7.42 nM in assay [1] (Homo sapiens, MM1.S).
Regarding `Cc1ccc(-n2nc(C(=O)N3C[C@@H](C)N[C@@H](C)C3)nc2-c2ccc3c(c2)N(C2CC(F)(F)C2)[C@H](C)C(=O)N3C)cc1` [Example 41], the IC50 on BRD4 (I) amounted to 20.1 nM.
Take `Cc1ccc(-n2nc(C(=O)N3CCN(C)CC3)nc2-c2ccc3c(c2)N(C2CC2)C(C)C(=O)N3C)c(C)c1` (stereo not drawn) [Example 34]: the IC50 at BRD4 (I) amounted to 13.9 nM; in assay [1] (Homo sapiens, MM1.S), 9.11 ± 2.91 nM. In addition, in assay [1], the “inhibitory activity” value is listed as “better inhibitory activity against the MM.1S cell line than the positive (+)-JQ1”.
Consider `Cc1ccc(-n2nc(C(=O)N3C[C@@H](C)N[C@@H](C)C3)nc2-c2ccc3c(c2)N(C(C)C)[C@H](C)C(=O)N3C)cc1` [Example 37], for which the IC50 on BRD4 (I) was found to be 15.1 nM; in assay [1] (Homo sapiens, MM1.S), 18.2 nM. Besides, in assay [1], the “inhibitory activity” value was “better inhibitory activity against the MM.1S cell line than the positive (+)-JQ1”.
As to `Cc1ccc(-n2nc(C(=O)N3C4CCC3CN(C)C4)cc2-c2ccc3c(c2)N(C2CCCC2)[C@H](C)C(=O)N3C)cc1` [Example 28], the IC50 on BRD4 (I) came to 6.7 nM.
Turning to `CCN1CCN(C(=O)c2nc(-c3ccc4c(c3)N(C3CC3)C(C)C(=O)N4C)n(-c3ccc(C)cc3C)n2)CC1` (stereo not drawn) [Example 35], the IC50 on BRD4 (I) was determined as 14.5 nM; in assay [1] (Homo sapiens, MM1.S), 15.5 ± 7.42 nM. For the same compound, in assay [1], the “inhibitory activity” value is “better inhibitory activity against the MM.1S cell line than the positive (+)-JQ1”.
As to `Cc1ccc(-n2nnnc2-c2ccc3c(c2)N(C2CCCC2)C(C)C(=O)N3C)cc1` (stereo not drawn) [Example 4], the IC50 on BRD4 (I) came out at 18.4 nM.
For the compound `Cc1ccc(-n2nc(C(=O)N3CC4CCC(C3)N4C)cc2-c2ccc3c(c2)N(C2CCCC2)[C@H](C)C(=O)N3C)cc1` [Example 29], the IC50 on BRD4 (I) turned out to be 7.7 nM.
As for `Cc1ccc(-n2nc(C(=O)N3CCC4(CCOC4)CC3)nc2-c2ccc3c(c2)N(C2CCCC2)[C@H](C)C(=O)N3C)cc1` [Example 21], the IC50 at BRD4 (I) came out at 7.1 nM.
For the compound `Cc1ccc(-n2nc(C(=O)N3CC4CCC(C3)N4C)nc2-c2ccc3c(c2)N(C2CCCC2)[C@H](C)C(=O)N3C)cc1` [Example 14], the IC50 on BRD4 (I) stood at 4.5 nM; in assay [1] (Homo sapiens, MM1.S) it was 10.7 ± 1.71 nM. Besides, in assay [1], the “inhibitory activity” value is “better inhibitory activity against the MM.1S cell line than the positive (+)-JQ1”.
With `Cc1ccc(-n2nc(C(=O)N(C)CCN(C)C)nc2-c2ccc3c(c2)N(C2CCCC2)[C@H](C)C(=O)N3C)cc1` [Example 13], the IC50 on BRD4 (I) was found to be 8.3 nM; in assay [1] (Homo sapiens, MM1.S), 22.4 ± 1.4 nM.
For (+)-JQ1 [reference compound], in assay [1], the IC50 was 19.3 ± 9.3 nM.
Consider `Cc1ccc(-n2nc(C(=O)N3C[C@@H](C)N[C@@H](C)C3)nc2-c2ccc3c(c2)N(C2CCOCC2)[C@H](C)C(=O)N3C)cc1` [Example 39], for which the IC50 at BRD4 (I) is 10.3 nM.
